Tested on: TS mRNA
Test: Inhibition of TS expression by siRNA in DLD-1/5FU cells, Taqman real-time PCR
Assay type: cell-based, human
Details: 72 hours after transfection; for effects of inhibiting TS expression (in words): siRNA 25 nM
Procedure: The DLD-1/5FU human colorectal cancer cell lines (Int. J. Oncol., 2000; 17: 277-83) that had been resported to be resistant to 5-FU were cultured in a 6-cm culture dish for 24 hours until the cells reached 50% to 60% confluence.
Subsequently, siRNA molecules (i.e., TS-siRNA1 molecules (sense strand: SEQ ID NO: 1; antisense strand: SEQ ID NO: 2), TS-siRNA2 molecules (sense strand: SEQ ID NO: 3; antisense strand: SEQ ID NO: 4), and TS-siRNA3 molecules (sense strand: SEQ ID NO: 5; antisense strand: SEQ ID NO: 6)) were chemically synthesized, and 2.5 ml of a solution containing each of the above siRNA molecules (final concentration: 25 nM) and 25 μl of TransIT-TKO Transfection Reagent (Minis) was transfected into the above cells in accordance with a conventional technique. Scrambled siRNA (TS-Scra1) was used as a negative control.
The effects of siRNA molecules on inhibition of TS expression were inspected via Taqman real-time PCR (ABI PRISM 7700 Sequence Detection System; Applied Biosystems) 72 hours after transfection. The Assays-on-Demand Gene Expression Assay Mix (assay ID Hs00426591_ml; PCR product size: 87 bp; Applied Biosystems) was used for TS primers and probes. GAPDH was used as the internal standard (Assays-on-Demand Gene Expression System; assay ID: Hs99999905_ml; PCR product size: 122 bp; Applied Biosystems).

Substance | effects on inhibition of TS expression (siRNA final concentration 25 nM, GAPDH internal standard) | effects of inhibiting TS expression (in words)
TS-siRNA1: chemically synthesized siRNA targeting TS; sense strand SEQ ID NO: 1, antisense strand SEQ ID NO: 2 (sense GUAACACCAUCGAUCAUGA; antisense UCAUGAUCGAUGGUGUUAC; listed as RNA, chemistry not given here) | 83.5±1.3% | 
TS-siRNA2: chemically synthesized siRNA targeting TS; sense strand SEQ ID NO: 3, antisense strand SEQ ID NO: 4 (sense GAAUACAGAGAUAUGGAAU; antisense AUUCCAUAUCUCUGUAUUC; listed as RNA, chemistry not given here) |  | exhibited effects of inhibiting TS expression
TS-siRNA3: chemically synthesized siRNA targeting TS; sense strand SEQ ID NO: 5, antisense strand SEQ ID NO: 6 (sense CGAUCAUGAUGUAGAGUGU; antisense ACACUCUACAUCAUGAUCG; listed as RNA, chemistry not given here) |  | exhibited effects of inhibiting TS expression
